According to PubChem BioAssay (NCI):
Values joined by “and” are separate entries in the source; they are usually repeats but may differ in a detail not shown here. Identical values can stand only once.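 The compound was tested at five concentrations on cells cultured in 96-well plates, with a 48-hour exposure period. GI50 = concentration required for 50% inhibition of growth. TGI marks complete inhibition of growth.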

Experiments:
Test in all cases: NCI tumour cell line growth inhibition, 48 h
KM12 colon = system: KM12 colon
HOP-92 NSCLC = system: HOP-92 NSCLC
COLO 205 colon = system: COLO 205 colon
MCF7 breast = system: MCF7 breast
EKVX NSCLC = system: EKVX NSCLC
SR leukemia = system: SR leukemia
HCC-2998 colon = system: HCC-2998 colon
IGROV1 ovarian = system: IGROV1 ovarian
SN12C renal = system: SN12C renal
UACC-257 melanoma = system: UACC-257 melanoma

SMILES	GI50 (KM12 colon)	TGI (KM12 colon)	GI50 (HOP-92 NSCLC)	TGI (HOP-92 NSCLC)	GI50 (COLO 205 colon)	TGI (COLO 205 colon)	GI50 (MCF7 breast)	TGI (MCF7 breast)	GI50 (EKVX NSCLC)	TGI (EKVX NSCLC)	GI50 (SR leukemia)	TGI (SR leukemia)	GI50 (HCC-2998 colon)	TGI (HCC-2998 colon)	GI50 (IGROV1 ovarian)	TGI (IGROV1 ovarian)	GI50 (SN12C renal)	TGI (SN12C renal)	GI50 (UACC-257 melanoma)	TGI (UACC-257 melanoma)
COc1ccc2c(C3(c4cn(C)c5cc(OC)ccc45)C(=O)Nc4ccc(Cl)cc43)cn(C)c2c1	3.82 µM	21.1 µM	3.02 µM	37.4 µM	1.95 µM	4.73 µM	3.09 µM	> 100 µM	2.6 µM	> 100 µM	2.64 µM	6.83 µM	6.35 µM	> 100 µM	2.82 µM	> 100 µM	1.91 µM	4.63 µM	2.29 µM	8.56 µM
CCCCCCNC(=O)Oc1ccc(/C(=C(/C)Cc2ccc(OC)cc2)c2ccc(OCCCN(C)C)cc2)cc1	13.9 µM	27.7 µM	9.99 µM	22.4 µM	14.6 µM	29.7 µM	1.12 µM	17.1 µM	13.2 µM	27.5 µM	2.79 µM	11.9 µM	14.6 µM	29.2 µM	16.3 µM	32.7 µM	14.7 µM	28.3 µM	19.3 µM	35.3 µM
CC(=O)N1N=C(c2ccc(Nc3ccnc4cc(Cl)ccc34)cc2)CC1c1ccc(Cl)cc1 (configuration not stated)	6.59 µM	> 100 µM	> 100 µM	> 100 µM	5.93 µM	> 100 µM	4.04 µM	> 100 µM	–	–	0.612 µM	> 100 µM	> 100 µM	> 100 µM	> 100 µM	> 100 µM	30.7 µM	> 100 µM	> 100 µM	> 100 µM
O=[N+]([O-])c1ccc(C2CC(c3ccccc3Cl)=Nc3ccccc3S2=O)cc1 (configuration not stated)	–	9.97 µM	–	31.5 µM	–	22.1 µM	–	7.92 µM	–	35.4 µM	–	6.64 µM	–	6.85 µM	–	8.57 µM	–	5.2 µM	–	48.3 µM
FC(F)(F)c1ccc(-c2cnc(-n3cc(COCCN4CCCCC4)nn3)nc2NC2CCCCCC2)cc1	4.27 µM	8.08 µM	0.523 µM	3.37 µM	3.86 µM	8.57 µM	3.21 µM	7.4 µM	–	–	2.61 µM	7.73 µM	3.93 µM	7.44 µM	3.9 µM	10.2 µM	3.98 µM	7.56 µM	–	–
Cc1cn(C2C=CC(CO)O2)c(=O)[nH]c1=O (configuration not stated)	–	> 1000 µM	–	> 1000 µM	–	> 1000 µM	–	> 1000 µM	–	> 1000 µM	–	> 1000 µM	–	> 1000 µM	–	> 1000 µM	–	> 1000 µM	–	> 1000 µM
COC1=C(C)C(=O)c2c(c(CCCl)c3n2CCC3O)C1=O (configuration not stated)	1.37 µM	6.73 µM	6.21 µM	24.7 µM	0.203 µM	0.72 µM	0.125 µM	1.9 µM	2.3 µM	7.69 µM	0.409 µM	> 26.8 µM	0.348 µM	1.57 µM	2.59 µM	12.4 µM	0.694 µM	14.2 µM	0.839 µM	3.45 µM
CCOc1cc(Br)c(C(C)NC(=O)c2cccc(OC)c2)cc1OCC (configuration not stated)	7.32 µM	> 100 µM	8.97 µM	> 83.5 µM	8.28 µM	37.9 µM	5.38 µM	> 100 µM	–	–	3.26 µM	> 100 µM	33.7 µM	> 100 µM	22.3 µM	> 100 µM	25.2 µM	> 100 µM	22.5 µM	> 100 µM
CC1=C(/C=C/C(C)=C/C=C/C(C)=C/C=N/NC(=S)NC(=S)N/N=C/C=C(C)/C=C/C=C(C)/C=C/C2=C(C)CCCC2(C)C)C(C)(C)CCC1	2.74 µM and 1.32 µM	9.21 µM and 3.97 µM	5.82 µM and 2.33 µM	13.4 µM and 6.76 µM	1.46 µM and 0.903 µM	5.14 µM and 1.71 µM	2.38 µM and 1.83 µM	12.5 µM and 7.5 µM	3.97 µM and 1.66 µM	11.3 µM and 7.77 µM	1.43 µM and 0.938 µM	8.12 µM and 3.79 µM	6.73 µM and 4.07 µM	13.5 µM and 11.8 µM	1.33 µM and 0.943 µM	6.15 µM and 2.87 µM	1.56 µM and 1.07 µM	6.34 µM and 3.32 µM	5.49 µM and 3.64 µM	12 µM and 9.82 µM
COc1cccc(-c2ccc3c(c2)C2CCN(Cc4ccccc4)C3C2)c1 (configuration not stated)	5.14 µM	21.6 µM	3.72 µM	20.2 µM	10 µM	27.8 µM	4.34 µM	19.5 µM	–	–	3.95 µM	13.8 µM	13.6 µM	33.5 µM	8.99 µM	76.6 µM	11.2 µM	30.3 µM	11.2 µM	29.1 µM
Brc1ccc2[nH]cc(-c3nc(-c4c[nH]c5ncccc45)cs3)c2c1	2.92 µM	10.4 µM	1.98 µM	6.89 µM	1.13 µM	5.77 µM	2.57 µM	13.7 µM	2.13 µM	18.6 µM	3.25 µM	14.3 µM	3.59 µM	15.7 µM	3.17 µM	23 µM	4.1 µM	19.4 µM	2.5 µM	7.26 µM
CCOC(=O)c1c(C)n(Cc2ccccc2)c2c1cc(O)c1[nH]c(Cc3ccccc3)nc12	4.36 µM	> 43.7 µM	20.2 µM	68.8 µM	24.7 µM	> 54.8 µM	7.4 µM	> 53.1 µM	25.5 µM	> 79.5 µM	3.23 µM	25.3 µM	–	2.04 µM	15.8 µM	> 57.7 µM	10.5 µM	39.8 µM	16.2 µM	> 70.2 µM
Clc1ccc(-c2nnc(-c3cccc4ccccc34)o2)cc1Cl	–	> 100 µM	–	> 100 µM	–	> 100 µM	–	> 100 µM	–	> 100 µM	–	> 100 µM	–	> 100 µM	–	53.9 µM	–	> 100 µM	–	> 100 µM
CCC(c1ccc(OC)cc1)C(CC)c1ccc(O)c(CN2CCN(C)CC2)c1 (configuration not stated)	3.68 µM	12 µM	2 µM	9.64 µM	1.73 µM	3.42 µM	2.42 µM	5.09 µM	5.37 µM	19.2 µM	1.71 µM	5.44 µM	2.15 µM	4.62 µM	5.4 µM	18 µM	5.7 µM	20.9 µM	2.1 µM	4.97 µM
COc1cc(-c2cc(-c3ccc(Nc4ccnc5cc(Cl)ccc45)cc3)nc(N3CCOCC3)n2)cc(OC)c1OC	–	–	1.85 µM	4.81 µM	2.79 µM	9.36 µM	0.755 µM	3.26 µM	2.62 µM	9.73 µM	0.468 µM	2.41 µM	3.64 µM	> 100 µM	1.91 µM	4.03 µM	1.93 µM	3.81 µM	–	–
O=[N+]([O-])c1ccc(Oc2nc(Nc3ccc(O[C@H]4CO[C@H]5[C@@H]4OC[C@@H]5O)c(Cl)c3)ncc2F)c(Cl)c1	0.41 µM	2.22 µM	0.807 µM	2.65 µM	1.42 µM	3.78 µM	1.66 µM	4.16 µM	2.22 µM	9.43 µM	0.548 µM	7.79 µM	2.12 µM	7.07 µM	0.493 µM	2.77 µM	1.34 µM	6.78 µM	1.78 µM	4.27 µM
Cc1cc(S(=O)(=O)/N=C/N(C)C)c(SC(=O)c2ccc(Cl)cc2)cc1Cl	39.1 µM	> 100 µM	28.9 µM	> 100 µM	55.9 µM	> 100 µM	37.1 µM	> 100 µM	17.4 µM	51.1 µM	44.6 µM	> 100 µM	17.9 µM	38.2 µM	38.5 µM	> 100 µM	26.8 µM	79.8 µM	> 100 µM	> 100 µM
O=C(O)C1CC2(C1)CC(C(=O)O)C2 (configuration not stated)	–	> 100 µM	–	–	–	> 100 µM	–	> 100 µM	–	> 100 µM	–	> 100 µM	–	> 100 µM	–	> 100 µM	–	> 100 µM	–	> 100 µM
O=C1C2=C(c3ccccc31)C(c1ccccc1)N1C(=O)CSC1=N2 (configuration not stated)	–	> 100 µM	–	> 100 µM	–	> 100 µM	–	> 100 µM	–	> 100 µM	–	> 100 µM	–	> 100 µM	–	> 100 µM	–	> 94.9 µM	–	> 100 µM
COc1cccc2c1-c1c(c3ccc([N+](=O)[O-])cc3c(=O)n1CCCN)C2=O	2.02 µM	> 24.1 µM	5.64 µM	13.3 µM	1.34 µM	3.07 µM	0.0486 µM	1.59 µM	2.17 µM	5.08 µM	0.0256 µM	0.379 µM	3.02 µM	7 µM	0.289 µM	1.99 µM	3.23 µM	9.07 µM	17.9 µM	44.4 µM
N[C@@H]1C(=O)N2C(C(=O)OC(c3ccccc3)c3ccccc3)=C(CCl)CS[C@H]12	38.1 µM	> 100 µM	38.3 µM	> 71.4 µM	40.3 µM	> 100 µM	33.6 µM	> 100 µM	60.1 µM	> 100 µM	2.12 µM	33.8 µM	43 µM	> 100 µM	47.4 µM	> 100 µM	41 µM	> 100 µM	> 100 µM	> 100 µM
Cc1cc2cc3ccc(N(C)C)cc3nc2cc1N	0.439 µM	2.18 µM	1.14 µM	4.69 µM	0.389 µM	2.01 µM	0.35 µM	11.2 µM	0.273 µM	3.11 µM	0.536 µM	5.68 µM	0.33 µM	1.34 µM	0.528 µM	2.9 µM	0.411 µM	4.54 µM	1.12 µM	3.04 µM
Oc1ccc(-c2nc3ccc4[nH]ncc4c3c3c2CCCC3)c(F)c1	0.362 µM	13.2 µM	2.07 µM	9.8 µM	2.25 µM	5.56 µM	4.91 µM	20.7 µM	3.16 µM	13.5 µM	0.464 µM	7.46 µM	4.25 µM	14.5 µM	2.8 µM	12.4 µM	2.99 µM	12.5 µM	1.84 µM	5.34 µM
COc1cc(OC)c2nccc(NCCCN(C)C)c2c1[N+](=O)[O-]	–	> 100 µM	–	> 100 µM	–	> 100 µM	–	> 100 µM	–	–	–	> 100 µM	–	> 100 µM	–	> 100 µM	–	> 100 µM	–	> 100 µM
Cc1cc(Nc2nc(-c3cccnc3)nc3ccccc23)n[nH]1	0.206 µM	99.1 µM	1.62 µM	6.63 µM	1.07 µM	3.74 µM	1.28 µM	> 100 µM	–	–	0.481 µM	> 38.5 µM	21.5 µM	> 100 µM	1.2 µM	> 40.6 µM	3.21 µM	> 100 µM	42.2 µM	> 100 µM
CC(=O)c1c(CN(C)c2ccccc2)n([O-])c2ccccc2[n+]1=O	29.6 µM	> 100 µM	–	–	16.2 µM	32.9 µM	15 µM	63 µM	41.2 µM	> 100 µM	5.79 µM	> 100 µM	30.9 µM	> 100 µM	45.4 µM	> 100 µM	24.9 µM	87.4 µM	89.2 µM	> 100 µM
Oc1ccc(O)c(-c2cc(-c3ccc(Cl)cc3)nn2-c2ccccc2)c1	4.14 µM	18.4 µM	2.71 µM	22.9 µM	–	–	3.88 µM	> 100 µM	23.9 µM	51.1 µM	3 µM	14.4 µM	2.58 µM	4.98 µM	9.95 µM	> 100 µM	2.88 µM	7.19 µM	4.95 µM	19.1 µM
